SMILES strings stand for the structures. Entries after “also recorded” stand apart in the source; their conditions may differ. Like-named read-outs stand apart in the source and are kept apart here. Bounds are passed on as bounds.

Data set [1] concerns G. lamblia WB6 (Assemblage A). Nature of the data set: Cell growth inhibition against G. lamblia WB6. In kind it is cell-based, Giardia lamblia. The protocol:
(§1) Giardia lamblia culture. G. lamblia WB6 strain, G. lamblia CBG99 strain, metronidazole-resistant strain 713-M3 and G. lamblia (Lambl) Alexeieff trophozoites (GS-clone H7; ATCC 50581) used for the primary screening were maintained in modified TYI-S-33 medium (ATCC 2695) and assayed as earlier described (Keister, 1983, Trans R Soc Trop Med Hyg 77: 487-488). Subsequent assays, including the mouse model of infection, used the G. lamblia click beetle green (CBG99) strain which was grown and assayed as previously described (Michaels et al., 2020, J Antimicrob Chemother 75:1218-1227; and Keister, 1983, Trans R Soc Trop Med Hyg 77:487-488).

Data set [2] in a line: Mouse pharmacokinetics, plasma concentration by LC-MS/MS. The format is in vivo. Particulars: for half-life: read-out: average half-life (t1/2); for Cmax: mouse plasma. How it is done: Methods for pharmacokinetic studies and analysis of mouse plasma compound concentrations by liquid chromatography with tandem mass spectrometry (LC-MS/MS) have previously been described (Hulverson et al., 2017, J Infect Dis 215:1275-1284; Ojo et al., 2012, J Clin Invest 122:2301-2305; and Schaefer et al., 2016, J Infect Dis 214:1856-1864). The pK studies was performed in groups of 3 mice per compound. […] Blood samples collected at intervals between 0.5 and 24 hours were separated and extracted with acetonitrile for measurement of compound concentrations by combined liquid chromatography-electrospray mass spectrometry (LC/ES-MS).

Data set [3] has as its system metronidazole resistant 713-M3 strain. Nature of the data set: Cell growth inhibition against metronidazole resistant 713-M3 strain. The format is cell-based, Giardia lamblia. The protocol:
as §1

Data set [4] in a line: Mouse pharmacokinetics, plasma concentration by LC-MS/MS. The format is in vivo. The settings on record: infected mice, all treatment groups, days 6 and 7 post-infection (24 and 48 hours after first dose).
Data set [5] can be described thus: Resazurin-based viability assay, CRL-8155. The format is cell-based. Particulars: human, CRL-8155 lymphocytic cells; CRL-8155 cells. How it is done:
(§2) Experimental details for the assays were earlier described (Love et al., 2017, PLoS Negl Trop Dis 11:e0005373). Compounds in the follow-up assays were also tested for the inhibition of CRL-8155 (human lymphocytic cells and human hepatocellular carcinoma cells (HepG2; ATCC HB-8065) in a resazurin-based viability assay as indicators of potential host cell toxicity. Assays were performed as previously reported (Vidadala et al., 2014, Eur J Med Chem 74:562-57).
For orientation: Resazurin is reduced to fluorescent resorufin, in cell work by metabolically active cells.

Data set [6] relates to G. lamblia GS-clone H7 trophozoites. The data set can be described thus: G. lamblia GS-clone H7 trophozoite growth, ATP-based bioluminescence (BacTiter-Glo) primary screen and dose response. The format is cell-based. The settings on record: read-out: Anti-Giardia EC50.
For data set [7] the following is noted: adult humans, daily oral doses over 7 days; cited from earlier work.
Data set [8] in a line: Resazurin-based viability assay, HepG2. In kind it is cell-based. The settings on record: human, HepG2 hepatocellular carcinoma cells. The protocol: as §2
Data set [9] is described as follows: Clinical evaluation of overall health of mice in PK and efficacy studies. In kind it is in vivo.
Data set [10] deals with G. lamblia CBG99. The data set can be described thus: Luciferase reporter acute murine Giardia infection model, whole animal IVIS imaging. The format is in vivo, Giardia lamblia. From the text: The method relies on a stable constitutive luciferase reporter, CBG99 (Click beetle green), that correlates with parasite load in vitro and in vivo. […] Only mice with confirmed infections are used in experiments.
All animal experiments were approved by the Institutional Animal Care and Use Committees at the University of Washington.
The method relies on a stable constitutive reporter, CBG99, that correlates with total parasite load.
A general note: Reporter assays use an easily measured gene product as a stand-in for the process of interest.

In data set [11] the test system is HEK293T. Nature of the data set: Mammalian cytotoxicity counter screen, luminescent ATP viability assay. In kind it is cell-based, human. Particulars: toxicity in mammalian cell cultures versus G. lamblia GS-clone 7 trophozoites.
Procedure: Mammalian cytotoxicity assays. Mammalian cell lines were used for counter screening for general cytotoxicity of hit compounds from the primary screen: human embryonic kidney cells (HEK293T; ATCC CRL-3216) was used in a luminescent ATP assay for detection of cell viability.
Data analysis. Relative luminescence units (RLU) values were analyzed in Genedata Screener (v13.0-Standard). RLU was normalized to neutral controls minus inhibitors (DMSO-treated wells minus metronidazole-treated wells). For single-point primary assay plates, an additional run-wise median correction was applied to reduce screen artifacts, whereas no corrections were applied to triplicate dose response plates. For the mammalian cytotoxicity assays, RLU was uploaded into Genedata Screener, and the data was normalized to DMSO-treated wells minus puromycin-treated wells.
[12] abbreviates: G. lamblia GS-clone H7 (Assemblage B) trophozoites, 48 hours, dose response.

One may read the EC50 as the concentration that produces a half-maximal response. As a reminder, the Cmax is the highest concentration seen after dosing. The AUC is concentration integrated over time. The term Tmax denotes the time at which the peak concentration occurs. The CC50 is the concentration that lowers cell viability or growth by half. Higher therefore signals lower toxicity to the cells. Regarding `C=CC(=O)N[C@H]1CN(c2nc(Nc3cn(C)nc3OC)c3ncn(C)c3n2)C[C@@H]1F` [Mavelertinib], the 50% effective concentration (EC50) in data set [1] (Giardia duodenalis) stood at 0.27 µM; in [3] (Giardia duodenalis), 0.07 µM; in [6] (Giardia duodenalis, 48 h), 2.34 µM. Moreover, the half-life in data set [2] (in vivo, mouse, single oral 5 mg/kg) worked out at 3.99 h; in data set [2] (plasma, mouse, single oral 20 mg/kg), 2.91 h; in data set [2] (plasma, mouse, single oral 50 mg/kg) it was 2.09 h. Also, the Cmax was determined as 0.63 µM in [2] (single oral 5 mg/kg), 3.5 µM in [2] (single oral 20 mg/kg) and 9.3 µM in [2] (single oral 50 mg/kg). Moreover, the plasma level entry in data set [2] (mouse, 1 mg/kg QD, 1 mg/kg) was “barely detectable in the plasma of one mouse at 0.5 hours post dose and below the limit of detection at all subsequent time points”. Besides, the “plasma concentration at 24 h post dose” value in data set [2] (mouse, all dosage groups, single dose) is reported as “cleared from plasma by 24 hours; also recorded: below the detection limit”. Further, the AUC turned out to be 89 µmol·min/L in [2] (mouse, single oral 5 mg/kg); 300 µmol·min/L in data set [2] (mouse, single oral 20 mg/kg); 812 µmol·min/L in data set [2] (mouse, single oral 50 mg/kg). The Clearance was determined as 0.015 L/min in [2] (mouse, single oral 5 mg/kg); 0.004 L/min in data set [2] (mouse, single oral 20 mg/kg); 0.0016 L/min in data set [2] (mouse, single oral 50 mg/kg). The time of peak concentration (Tmax) in data set [2] (plasma, oral, mouse, all doses) was determined as 0.5 h. In addition, the plasma trough levels result in [4] was “below the limit of quantitation”. Also, the CC50 in data set [5] and in data set [8] was > 80 µM each time. Besides, the “daily oral dose causing diarrhea and skin toxicities as most common adverse events” value in data set [7] is > 150 mg. For the same compound, the “signs of toxicity in mice” value in data set [9] is given as “no sign of toxicity; also recorded: no observable mavelertinib induced toxicology potentials”. Further, the clearance of infection result in data set [10] (IFN-γ-knockout mice, 1 mg/kg QD×4 days (days 6-9 p.i.), 1 mg/kg) was “None of the 1 mg/kg QD×4 days mice were relieved of their infection; also recorded: did not clear the infection after 4 doses”; in data set [10] (mice, 2.5 mg/kg QD×2 days), “one of four mice remained infected”; in [10] (mice, 50 mg/kg QD for 3 days, oral), “appeared to clear the infection”; in data set [10] (mice, one- and two-day dosing of 50 mg/kg QD), “all treated mice were cleared of infection and remained clear a week after dosing”. The “efficacy in the acute murine Giardia infection model” value in data set [10] (dosed as low as 5 mg/kg or as high as 50 mg/kg) is “efficacious; also recorded: effectively clears Giardia infection”. Moreover, the “clearance of infection (luminescence signal)” value in [10] (mice, 5 mg/kg QD×2 days, 5 mg/kg) is reported as “cleared the infection below the background signal; also recorded: absence of luminescence signal”; in data set [10] (mice, 20 mg/kg QD×2 days, 20 mg/kg), “cleared the infection below the background signal; also recorded: absence of luminescence signal”; in [10] (mice, 50 mg/kg QD×1 day, 50 mg/kg), “cleared the infection below the background signal; also recorded: absence of luminescence signal”. The “parasite rebound after treatment” value in data set [10] (mice, one week after the last therapeutic dose) is given as “parasites did not rebound”.

For `CC(=O)C[C@H]1CCCCN1` [pelletierine], the concentration giving a half-maximal response (EC50) in data set [1] is > 25 µM; in data set [3] (metronidazole resistant 713-M3, read-out: EC50) it was > 25 µM; in data set [6] (setting [12]) it was 20.3 µM.

In the case of `CS(=O)(=O)OCCN(CCBr)c1c(C(=O)NCCOP(=O)(O)O)cc([N+](=O)[O-])cc1[N+](=O)[O-]` [PR-104], the EC50 in data set [6] (setting [12]) was 1.98 µM.

Turning to `CCN(CC)CCn1c(=O)c(Cc2ccc(OC)cc2)nc2ccccc21` [caroverine], the EC50 in data set [6] (Giardia duodenalis, G. lamblia GS-clone H7 (Assemblage B) trophozoites, 48 hours, dose response) came out at 13.7 µM. Also, in data set [11], the “Selectivity index (SI), CC50/EC50” value is > 2.

In the case of `CCCN(CCC)c1ccc(N=Nc2ccccc2C(=O)O)cc1` [propyl red], in [6] (setting [12]), the EC50 turned out to be 5.78 µM.

Take `CS(=O)(=O)Nc1ccc(C(=O)O[C@@H](Cc2c(Cl)c[n+]([O-])cc2Cl)c2ccc(OC(F)F)c(OCC3CC3)c2)cc1OCC1CC1` [CHF-6001]: the “Selectivity index (SI), CC50/EC50” value in [11] is reported as > 12.

With `Cc1ncc([N+](=O)[O-])n1CCO` [metronidazole], the clearance of infection result in data set [10] (mice, 20 mg/kg QD×3 days) is recorded as “remained infected after treatment”.

Source of the values: patent publication US20250360138A1 (priority 2022, published 2025).
